Key:
[1] = tested on: ovarian cancer cell; conditions: in vitro study; cited from earlier work
[2] = tested on: A2780 epithelial ovarian cancer cells; assay: RNA sequencing and differential gene analysis of chip-derived tumors; type: cell-based, human; conditions: RNA-seq of chip-derived tumors
Experimental: Validation of cancer cell-platelet-drug crosstalk within OTME-Chip with next generation RNA-sequencing. It was recently shown that a collaboration of organ-chip technology with RNA-seq analysis is a powerful tool to validate preclinical studies and derive unbiased clinical predictions. Therefore, to solidify insights into the platelet-tumor signaling nexus and the therapeutic effect of Revacept, transcriptomic profiling was performed of different chip-derived tumors through RNA sequencing. Through RNA sequencing and differential gene analysis, expression of 12452 genes in the OTME-Chip relative to Control-Chip was detected. Similarly, expression of 5566, 6909 and 3821 genes in the Cx-OTME-Chip, CxRx-OTME-Chip and KO-OTME-Chip respectively relative to Control-Chip was detected. […]
RNA sequencing and analysis. […] Isolated mRNA samples were then analyzed using the NextSeq 500 platform (Illumina) and sample preparation was performed using TruSeqRNA sample preparation with paired-end read length of 2×75 bases (Molecular Genomics Workspace, Texas A&M University, College Station, TX). Then HISAT2 was used to splice align the reads to latest ENSEMBL-release-102 human genome/transcriptome (GRCh38.p13). […] Differentially expressed genes were then evaluated for all groups using DESeq2 package in R®. […]

[3] = tested on: A2780 epithelial ovarian cancer cells; assay: Cancer cell proliferation assay (Ki67) in OTME-Chip; type: cell-based, human; conditions: OTME-Chip with extravasated platelets; Revacept 40 μg/mL, cisplatin 6 μg/mL
Experimental: (§1) Drugs. Cisplatin (Fisher Scientific, USA) and Revacept (Advancecor GamBH, Germany) were dissolved in DMSO and PBS/4% Mannitol/1% Sucrose respectively to prepare master stocks (1 mg/mL). These were further diluted in RMPI-1640 media to obtain respective working concentrations of cisplatin (6 μg mL^−1) and Revacept (40 μg mL^−1). They were perfused into the chip tumor chamber individually or in combination in presence or absence of extravasated platelets.
Cancer cell proliferation assay. Isolated cancer cells were immunostained with monoclonal anti-Ki67 antibody-Alexa Fluor488 conjugate (Abcam). The fluorescence intensity was then measured with a plate reader using excitation/emission wavelengths of 488/519 nm. Platelet free cancer cells obtained from other chips during similar time points were kept as control. Proliferation rate was measured as a percentage ratio of fluorescent intensities of experimental and control cells.

[4] = tested on: A2780 epithelial ovarian cancer cells; assay: Cancer cell ECM invasion in OTME-Chip (A2780); type: cell-based, human; conditions: OTME-Chip with extravasated platelets, analyzed for three days; Revacept 40 μg/mL, cisplatin 6 μg/mL
From the text: OTME-Chip predicts that pharmaceutical inhibition of GPVI arrests metastasis and supports chemotherapy. The potential consequences of pharmaceutical targeting of GPVI on platelets in cancer were then investigated. There are currently no FDA-approved anti-GPVI drugs in the market. However, Revacept is an inhibitor that has been successfully evaluated against collagen-mediated platelet adhesion in phase I clinical trials of atherosclerosis and stroke. Revacept inhibited the platelet GPVI and tumor galectin-3 interaction in a colon carcinoma cell line. This drug is a fusion protein consisting of the Fc part of human IgG, a short hinge region, a specific linker sequence, and the extracellular part of human platelet GPVI with a molecular mass of 150 kDa. […] Thereafter, these chips were analyzed for three days (FIG. 7). […]
Cell invasion. […] Invasion dynamics of live stained cancer cells (green) into the Chip ECM chamber hydrogel was visualized using fluorescence microscopy (Zeiss Axio Observer; LD Plan Neofluar 10×, NA 0.4). […] Images were analyzed and processed using software ZEN 2.3 lite (ZEISS). […] The ECM invasion of cancer cells was calculated as the ratio of area occupied by invaded cancer cells in ECM chamber vs. the total area of ECM chamber.

[5] = tested on: A2780 epithelial ovarian cancer cells; assay: Cell cycle analysis of cancer cells from OTME-Chip; type: cell-based, human; conditions: OTME-Chip with extravasated platelets, compared to untreated controls; Revacept 40 μg/mL, cisplatin 6 μg/mL
Experimental: as §1
Cell cycle analysis. Cancer cells isolated via Accutase™ treatment from the chip were fixed in 70% ethanol at […] for 6 hr and permeabilized. Cells were then incubated with 100 μg mL^−1 Propidium Iodide (PI) (Sigma-Aldrich), and 50 μg mL^−1 ribonuclease A in the dark for 30 min at 37° C. Flow cytometry was performed on a BD Accuri C6 flow cytometer (BD Biosciences, USA) and cell cycle analysis was done using CellQuest Pro software.

[6] = tested on: metastasis and cell proliferation genes; assay: Transcriptional analysis (qRT-PCR) of cancer cells from OTME-Chip; type: cell-based, human; conditions: cancer cells obtained from the chips, over time; Revacept 40 μg/mL, cisplatin 6 μg/mL
Experimental: as §1
Quantitative real-time PCR. Cancer cell total RNA was isolated using the Arcturus PicoPure RNA Isolation Kit specifically (Thermofisher Scientific, CAS-KIT0214) designed to recover high-quality RNA consistently from fewer cells. Cells isolated from the Chip were washed in prescribed in buffer (0.9 mL of 1×PBS/10% BSA; 0.1 mL of 0.5 M EDTA) and total cellular RNA was isolated by using the manufacturer's protocol. […] The cDNA prepared was further used for the subsequent quantitative qRT-PCR reactions using SyBR green master mix (Applied Biosystems™ SYBR™ Green select PCR Master Mix) and gene specific primers. […] Gene expression was analyzed by quantifying the relative fold changes in mRNA levels of individual genes using comparative Cycle Threshold (CT)/ACT method.

[7] = tested on: growth factors (PDGF, VEGF, and TGFβ) and cytokines (IL-8, MMP9, and IL-6); assay: Growth factors and cytokines in OTME-Chip tumor chamber effluents (multiplex); type: cell-based, human; conditions: Revacept 40 μg/mL, cisplatin 6 μg/mL
Experimental: as §1
Growth factors and cytokines. Growth factors and cytokines present in OTME-Chip tumor chamber media effluents were measured using multiplex (xMAP) magnetic bead-based technology provided by Millipore. Media effluents collected from tumor chamber during different time points were analyzed for cytokines and growth factors using MILLIPLEX® MAP Human cytokine/chemokine magnetic bead panel kit (Millipore, CAS-HCYTOMAG-60K) by following previously established protocols. Assays were run in a pre-calibrated Luminex MAPGPIX reader. The mean fluorescent intensity (MFI) of the magnetic beads correlating with the concentration (pg/mL) of respective cytokines and growth factors was calculated using xPONENT 4.2 software and data analysis was done with Milliplex Analyst 5.1 software (Millipore). The concentration of cytokines obtained in each sample was normalized with respect to controls and the assays were run in triplicate. […]

Row | SMILES | platelet-induced ovarian cancer cell invasion [1] | expression of genes of signaling pathways (NFκB, TGFβ/Smad, Hippo, MAPK, mTOR, Notch, PI3-Akt, Wnt), volcano plots [2] | expression of these pathways, heatmaps of expression profiles ([2]; different chip conditions) | proliferation rate of the cancer cells [3] | ECM invasion of cancer cells / tumor invasiveness [4] | G2/M phase in cancer cells [5] | platelet-induced upregulation of metastasis and cell proliferation genes [6] | concentration of growth factors (PDGF, VEGF, TGFβ) and cytokines (IL-8, MMP9, IL-6) [7]
1 | CC(=O)Oc1ccccc1C(=O)O [aspirin, acetylsalicylic acid] | attenuated |  |  |  |  |  |  | 
2 | N.N.[Cl][Pt][Cl] [cisplatin, reference compound] |  | reduced | downregulated | modest effect | modest effect | modest effect | altered overtime modestly | modest effect

— patent US20240327768A1, “MICROFLUIDIC DEVICE MIMICKING TUMOR MICROENVIRONMENT” (The Texas A&M University System, priority 2021, published 2024)
